Test results taken from US11613753B2, “Methods and pharmaceutical compositions for treating tubulin carboxypeptidases associated diseases” (LES LABORATOIRES SERVIER, priority 2017, dated 2023).
“Also recorded” adds a separate entry of the source.

Target: T1, brain TCP (fraction IV) (Mus musculus, UniProt Q8C1W1)
T1 construct: from tissue; host or cells: adult mouse brain, fraction IV (ammonium sulfate cut, Hitrap Q XL flow-through, Hitrap SP XL eluate)
T1 sequence (Q8C1W1 1-375): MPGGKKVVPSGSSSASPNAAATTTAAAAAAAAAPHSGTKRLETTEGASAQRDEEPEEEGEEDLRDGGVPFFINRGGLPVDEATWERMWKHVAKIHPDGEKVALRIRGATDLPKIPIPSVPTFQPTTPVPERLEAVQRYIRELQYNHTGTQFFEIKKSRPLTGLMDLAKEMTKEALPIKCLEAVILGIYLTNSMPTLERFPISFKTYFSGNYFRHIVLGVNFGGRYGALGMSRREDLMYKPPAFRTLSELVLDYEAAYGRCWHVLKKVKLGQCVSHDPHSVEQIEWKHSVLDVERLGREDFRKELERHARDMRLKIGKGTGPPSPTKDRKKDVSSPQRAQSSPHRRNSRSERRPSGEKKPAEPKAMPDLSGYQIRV
T1 sequence (Q99LQ4 1-66 partner): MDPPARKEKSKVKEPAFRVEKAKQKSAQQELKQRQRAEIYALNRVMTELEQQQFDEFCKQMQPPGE
Assay: TCP activity assay, radioactivity test with [14C]-tyrosinated taxol-stabilized microtubules, on enriched brain fraction IV
Assay type: biochemical
Conditions: FIG. 1B
Method: Preparation of tyrosinated tubulin and microtubule, and EB1. Bovine brain tubulin (12 mg/mL, prepared as in (S. Ramirez-Rios et al., (2016) Molecular biology of the cell 27, 2924) was tyrosinated by incubation for 45 min at 30° C. with purified chicken TTL (1 mg/mL, gift from Steinmetz group) and 0.1 mM L-tyrosine or [14C]-L-tyrosine (0.125 μCi/mole) in 40 mM Pipes at pH 6.7, 60 mM KCl, 2.5 mM ATP, 1 mM DTT, 12.5 mM MgCl2. Microtubules polymerization was allowed by one-third dilution in 100 mM PIPES at pH 6.7. 1 mM EGTA, 1 mM MgCl2, 30% glycerol, 1 mM GTP and incubation at 32° C. for 45 min, followed by another 45 min incubation with 50 μM Paclitaxel (Calbiochem). Microtubules were sedimented by 25 min centrifugation at 100,000 g and 30° C. on 60% glycerol cushions. TTL-containing supernatant was discarded and tyrosinated-microtubules were resuspended in 100 mM PIPES at pH 6.7, 1 mM EGTA, 1 mM MgCl2, 10% glycerol, 80 μM paclitaxel and stored at −20° C. To obtain unpolymerized tyrosinated-tubulin, paclitaxel was omitted during the whole procedure. EB1 was prepared as in S. Ramirez-Rios et al., (2016) Molecular biology of the cell 27, 2924.
TCP activity assays. In radioactivity tests using [14C]-tyrosinated taxol-stabilized microtubule, enzyme activity was measured in 100 mM MES at pH 6.7. 1 mM EGTA and 1 mM MgCl2 using 2 μM radiolabeled tubulin, except in FIGS. 2D and S2D (as indicated in legend). Reactions were performed for 45 min at 37° C. (without or with previous incubation with inhibitors, see legends) and were stopped on ice by addition of 20 μg/ml bovine serum albumin and 10% perchloric acid and centrifugation. Tyrosine cleaved from microtubules was estimated by measuring radioactivity in the supernatant (a zero time control was subtracted). To compose the table of Fig. S1A, detyrosination activity from equal volumes of the various fractions was measured. In tests with inhibitors, detyrosination activity was tested after a 20 min preincubation with inhibitor (except in Figs. S2C and S2) where varying time of incubation were used as indicated in legend), and results with inhibitors were expressed as percentage of the activity in the control with corresponding solvent. In tests using Western-blots, enzyme activity was assayed with 5 μM substrates (taxol-stabilized microtubule, tubulin or EB1) in 100 mM MES at pH 6.7. Positive controls were done with carboxypeptidase A (2 ng/mL). Reactions were stopped by addition of Laemmli buffer. A reaction with carboxypeptidase A (CPA), which efficiently cleaves aromatic and aliphatic C-terminal residues, was used as positive control. In tests using VASH/SVBP complexes purified on cobalt resin from HEK293T cells, enzymes concentration were approximated from in-gel Coomassie-blue staining of purified VASH1 and VASH2 together with standards of bovine serum albumin.
Enzyme enrichment. We designed a three-step purification procedure from brain lysate inspired from previous efforts (N. Kumar, M. Flavin, (1981) The Journal of biological chemistry 256, 7678; C. E. Argarana, H. S. Barra, R. Caputto, (1980) Journal of neurochemistry 34, 114). All steps were carried out at 4° C. Adult mice brains were homogenized in 50 mM phosphate buffer at pH 6.7, 1 mM EGTA, 1 mM MgCl2, 1 μg/ml DNAse with a protease inhibitor cocktail (cOmplete EDTA-free, Roche) and centrifuged 1 h at 100.000 g. The supernatant was collected (Fraction 1). In step 1 (ammonium sulfate fractionation), Fraction 1 was slowly brought to 45% ammonium sulfate, incubated for 15 min and centrifuged 20 min at 15,000 g. Resulting supernatant underwent the same procedure at 65% ammonium sulfate. The pellet was re-suspended in one-eighth of initial volume with 50 mM MES pH 6.7, 1 mM EGTA, 1 mM MgCl2 and desalted using Bio-Gel P30 (Bio-Rad) equilibrated with the same buffer (Fraction 11). […]

In the case of `CC(C)C[C@H](NC(=O)[C@H]1O[C@@H]1C(=O)O)C(=O)NCCCCN=C(N)N` [E-64], the IC50, inhibition of TCP activity (20 min preincubation with inhibitor) is reported as 300 µM and the “Inhibition of brain TCP activity (in words)” value (from here on “Inhibition … (in words)”) is reported as “inhibited; also recorded: modest inhibitory activity”.
In the case of `CCOC(=O)[C@H]1O[C@@H]1C(=O)N[C@@H](Cc1ccc(O)cc1)C(=O)O` [EpoY], the IC50 (20 min preincubation with inhibitor, read-out: IC50, inhibition of TCP activity) is reported as roughly 0.5 µM and the “Inhibition … (in words)” value is reported as “most potent inhibitor”.
For `CCN1C(=O)C=CC1=O` [N-Ethylmaleimide], the “Inhibition … (in words)” value was “inhibited”.
With `NCCc1ccc(S(=O)(=O)F)cc1` [AEBSF] the “Inhibition … (in words)” value was “inhibited”.
